For experiment [1], the target named is T1, IDE (Homo sapiens, UniProt P14735).
T1 construct: made in house; host or cells: bacteria
T1 sequence (P14735 1-1019): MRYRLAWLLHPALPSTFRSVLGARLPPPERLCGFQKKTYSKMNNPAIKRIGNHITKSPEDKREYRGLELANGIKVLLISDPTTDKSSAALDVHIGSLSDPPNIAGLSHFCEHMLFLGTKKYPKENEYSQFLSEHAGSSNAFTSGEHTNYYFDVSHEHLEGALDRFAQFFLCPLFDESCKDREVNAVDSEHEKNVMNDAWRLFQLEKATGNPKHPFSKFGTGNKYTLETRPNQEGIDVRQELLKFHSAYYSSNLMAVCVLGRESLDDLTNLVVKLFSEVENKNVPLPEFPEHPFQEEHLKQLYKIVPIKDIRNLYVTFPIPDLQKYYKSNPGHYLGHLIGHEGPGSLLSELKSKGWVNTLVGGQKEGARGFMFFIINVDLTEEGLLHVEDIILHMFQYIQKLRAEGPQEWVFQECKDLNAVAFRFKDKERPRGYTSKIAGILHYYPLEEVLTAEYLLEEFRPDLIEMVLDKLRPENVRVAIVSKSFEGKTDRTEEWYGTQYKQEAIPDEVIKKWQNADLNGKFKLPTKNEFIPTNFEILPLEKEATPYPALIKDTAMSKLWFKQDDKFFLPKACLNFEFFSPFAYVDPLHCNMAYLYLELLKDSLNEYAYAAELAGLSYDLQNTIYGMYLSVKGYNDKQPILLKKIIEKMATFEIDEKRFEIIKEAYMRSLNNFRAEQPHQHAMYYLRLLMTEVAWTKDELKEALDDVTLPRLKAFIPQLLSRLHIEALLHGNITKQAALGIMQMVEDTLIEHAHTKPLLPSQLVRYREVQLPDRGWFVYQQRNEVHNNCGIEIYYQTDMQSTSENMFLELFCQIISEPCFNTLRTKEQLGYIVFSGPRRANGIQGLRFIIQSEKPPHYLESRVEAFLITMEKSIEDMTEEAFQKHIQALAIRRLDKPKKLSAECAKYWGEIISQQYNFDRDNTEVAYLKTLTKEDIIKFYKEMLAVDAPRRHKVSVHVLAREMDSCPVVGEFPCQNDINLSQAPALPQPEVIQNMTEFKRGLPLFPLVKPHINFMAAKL
In words: biochemical. The settings on record: for Percent activity at 500 uM, Mean: N 4; for IC50: dose-response, FRET1. An outline of the steps: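 Recombinant human IDE (1 nM, bacterially expressed) degraded FRET1 substrate (5 μM), fluoresceinated biotinylated amyloid β (500 nM) or human insulin (50 nM) in PBS with 0.05% BSA. Peptides tested included N-acetylated and C-amidated variants.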

Experiment [2] addresses T1, IDE. In words: biochemical. The settings on record: for IC50: insulin ELISA assay, dose-response. In a few lines: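 Bacterially expressed recombinant human IDE (1 nM) in PBS with 0.05% BSA. Substrates: FRET1 (5 μM; fluorescence, ex 340/em 420 nm), fluoresceinated biotinylated amyloid β-protein (500 nM; fluorescence polarization, ex 488/em 525 nm), or recombinant human insulin (50 nM; ELISA).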

Experiment [3] deals with T1, IDE. The experiment in a line: Vulnerability of peptides to degradation by IDE: 0 vs 4 h pre-incubation, then FRET1 assay. The settings on record: for IC50: FRET1 assay. In kind it is biochemical. The procedure: IDE activity was quantified by monitoring the degradation of Mca-[…](Dnp) (FRET1, 5 μM), fluoresceinated and biotinylated amyloid ß-protein (FAßB; 500 nM) or recombinant human insulin (50 nM) in PBS supplemented with 0.05% BSA. […] In vitro activity assays incorporated recombinant human IDE (1 nM) purified from bacteria. For quantitation of insulin degradation in primary murine skin fibroblasts, cells (1 x 10^5/well) were plated in 96-well plates and maintained in DMEM supplemented with 10% fetal bovine serum (FBS), 2mM glutamine, penicillin and streptomycin. After addition of insulin (10 nM or 100 nM), samples of conditioned medium were removed daily and quickly frozen, then insulin levels were quantified in parallel by ELISA according to manufacturer’s recommendations (Crystal Chem, Downers Grove, IL, USA). Assessment of the activity of P12-3A against a variety of matrix-metalloproteases was conducted using the Matrix Metalloproteinase (MMP) Inhibitor Profiling Kit, Fluorometric RED (Enzo Life Sciences, Inc., Farmingdale, NY, USA) according to manufacturer’s recommendations using the broad-spectrum MMP inhibitor, NNGH, as a positive control.

Where [4] appears, read: peptide at 10 uM, insulin 100 nM, normalized to DMSO-only and no-enzyme controls.

“And” between values parts separate entries of the source, which are not always exact repeats. Identical values can stand only once. Ends that are not written are not given here.

As to WCYPHCVT [P12-3C], the “Percent activity at 500 uM, Mean” value is 6.4% in experiment [1] (initial test, percent of initial velocity relative to DMSO-only controls) and 29.8% in experiment [1] (judged as IC50 <100 uM?). Besides, in experiment [2] (setting [4]), the “percent decrease in insulin detected by ELISA, Replicate 1” value came out at 111.9%. The “percent decrease in insulin detected by ELISA, Replicate 2” value in experiment [2] (setting [4]) is recorded as 145.7%. The “percent decrease in insulin detected by ELISA, Replicate 3” value in experiment [2] (setting [4]) came out at 105.6%. Further, the “percent decrease in insulin detected by ELISA, Replicate 4” value in experiment [2] (setting [4]) amounted to 114.6%. Further, in experiment [2] (peptide at 10 uM, insulin 100 nM, normalized to DMSO-only and no-enzyme controls, N=4), the “percent decrease in insulin detected by ELISA, Mean” value came out at 119.5%. Also, the “Percent Activity (normalized initial velocity of FRET1 hydrolysis)” value in experiment [3] (0-hr incubation, Cmpd 0.12207 uM, relative to DMSO-only controls, individual runs) is 87.1275% and 89.107% and 97.5567%; in experiment [3] (0-hr incubation, Cmpd 0.488281 uM, relative to DMSO-only controls, individual runs), 88.274% and 92.2277% and 96.9846%; in experiment [3] (0-hr incubation, Cmpd 1.95312 uM, relative to DMSO-only controls, individual runs) it was 91.5093% and 89.6687% and 99.5643%; in experiment [3] (0-hr incubation, Cmpd 7.8125 uM, relative to DMSO-only controls, individual runs), 83.3253% and 88.0997% and 90.5388%; in experiment [3] (0-hr incubation, Cmpd 31.25 uM, relative to DMSO-only controls, individual runs), 61.5604% and 65.1463% and 71.7432%; in experiment [3] (0-hr incubation, Cmpd 125 uM, relative to DMSO-only controls, individual runs) it was 22.5624% and 28.2506% and 30.6967%. In addition, the “Percent Activity (normalized initial velocity of FRET1 hydrolysis)” value in experiment [3] (0-hr incubation, Cmpd 500 uM, relative to DMSO-only controls, individual runs) was 2.879% and 4.537% and 8.696%; in experiment [3] (4-hr incubation, Cmpd 0.12207 uM, relative to DMSO-only controls, individual runs), 96.239% and 102.101%; in experiment [3] (4-hr incubation, Cmpd 0.488281 uM, relative to DMSO-only controls, individual runs), 100.910% and 100.775%; in experiment [3] (4-hr incubation, Cmpd 1.95312 uM, relative to DMSO-only controls, individual runs) it was 100.923% and 102.486%; in experiment [3] (4-hr incubation, Cmpd 7.8125 uM, relative to DMSO-only controls, individual runs), 97.345% and 105.750%; in experiment [3] (4-hr incubation, Cmpd 31.25 uM, relative to DMSO-only controls, individual runs), 94.256% and 100.607%. Besides, the “Percent Activity (normalized initial velocity of FRET1 hydrolysis)” value in experiment [3] (4-hr incubation, Cmpd 125 uM, relative to DMSO-only controls, individual runs) is 90.993% and 91.075%; in experiment [3] (4-hr incubation, Cmpd 500 uM, relative to DMSO-only controls, individual runs), 24.626% and 23.530%.
Consider WSPISGKFFQRF-NH2 [P12-4A], for which the Ki in experiment [1] (Cheng-Prusoff, KM 10 uM, substrate concentration 5 uM, read-out: Ki values, Mean) worked out at 4.25 µM; in experiment [1] (substrate FRET1 5 μM, Ki from IC50 with the Cheng-Prusoff equation, read-out: Ki FRET1), 4.2 ± 1.3 µM; in experiment [2] (substrate recombinant human insulin 50 nM, Ki from IC50 with the Cheng-Prusoff equation) it was 2.6 ± 0.7 µM; in experiment [3] (4-hr incubation, Cheng-Prusoff from IC50, FRET1 KM 10 uM, substrate 5 uM), 43.5 µM. The IC50 was 6.41 µM and 2.96 µM and 9.75 µM in experiment [1] (individual runs, read-out: IC50s, Run 1-6); 6.37 µM in experiment [1] (read-out: IC50s, Mean); 6.44 µM and 6.45 µM and 2.48 µM in experiment [2] (Replicates 1-3, read-out: IC50s, individual replicates); 5.12 µM in experiment [2] (N=3, read-out: IC50s, Mean); 63.7 µM and 66.6 µM in experiment [3] (4-hr incubation, individual replicates, read-out: IC50s); 65.2 µM in experiment [3] (4-hr incubation, mean of 2 replicates, read-out: IC50s, Mean). For the same substance, the “IC50 <500 uM?” value in experiment [1] (initial test at 500 uM) is “YES”. For the same substance, the remaining activity at 500 µM amounted to 17.7% in experiment [1] (judged as IC50 <100 uM?, individual replicates, read-out: Percent activity at 500 uM, Replicate 1-4) and 27.1% in experiment [3] (4 h, 4-hr incubation, Cmpd 500 uM, relative to DMSO-only controls, individual runs, read-out: Percent Activity (normalized initial velocity of FRET1 hydrolysis)). Further, the “IC50 <10 uM?” value in experiment [2] (initial test at 10 uM using insulin (100 nM)) is recorded as “YES”. Also, in experiment [3] (4 h, 4-hr incubation, Cmpd 0.12207 uM, relative to DMSO-only controls, individual runs, read-out: Percent Activity (normalized initial velocity of FRET1 hydrolysis)), the remaining activity at 0.12207 µM turned out to be 78.9%. The remaining activity at 0.488281 µM in experiment [3] (4 h, 4-hr incubation, Cmpd 0.488281 uM, relative to DMSO-only controls, individual runs, read-out: Percent Activity (normalized initial velocity of FRET1 hydrolysis)) came to 81.8%. For the same substance, the remaining activity at 1.95312 µM in experiment [3] (4 h, 4-hr incubation, Cmpd 1.95312 uM, relative to DMSO-only controls, individual runs, read-out: Percent Activity (normalized initial velocity of FRET1 hydrolysis)) was 85.3%. Moreover, the remaining activity at 7.8125 µM in experiment [3] (4 h, 4-hr incubation, Cmpd 7.8125 uM, relative to DMSO-only controls, individual runs, read-out: Percent Activity (normalized initial velocity of FRET1 hydrolysis)) worked out at 83.2%. Also, the remaining activity at 31.25 µM in experiment [3] (4 h, 4-hr incubation, Cmpd 31.25 uM, relative to DMSO-only controls, individual runs, read-out: Percent Activity (normalized initial velocity of FRET1 hydrolysis)) was 35.7%. The remaining activity at 125 µM in experiment [3] (4 h, 4-hr incubation, Cmpd 125 uM, relative to DMSO-only controls, individual runs, read-out: Percent Activity (normalized initial velocity of FRET1 hydrolysis)) turned out to be 51.3%.

For orientation: Ki means a measure of affinity in units of concentration, obtained from inhibition or displacement.

Source of the values: paper PMC5814047, “Peptidic inhibitors of insulin-degrading enzyme with potential for dermatological applications discovered via phage display” (PLoS ONE, 2018).
